In brackets after ≈: the same amount, converted by molar mass. Activity calls are given as the source filed them. No cut-off for these calls is given here. Peptide text beside a SMILES is read from it.
What was measured:
Salmonella typhimurium [1] = experiment: Antibacterial activity against Salmonella typhimurium CICC 21913 incubated overnight by standard microtiter dilution method; assay type: functional, Salmonella enterica subsp. enterica serovar Typhimurium; conditions: Salmonella enterica
[2] = Antibacterial activity against Salmonella paratyphi C CICC 21512 incubated overnight by standard microtiter dilution method; assay type: functional, Salmonella enterica subsp. enterica serovar Paratyphi C; conditions: Salmonella enterica
Salmonella paratyphi = experiment: Antibacterial activity against Salmonella paratyphi A CICC 21501 incubated overnight by standard microtiter dilution method; assay type: functional, Salmonella enterica subsp. enterica serovar Paratyphi A; conditions: Salmonella enterica
[3] = Antibacterial activity against Salmonella enterica subsp. enterica serovar Choleraesuis CICC 21493 incubated overnight by standard microtiter dilution method; assay type: functional
[4] = Cytotoxicity against mouse RAW264.7 cells assessed as cell viability at 128 ug/ml incubated for 24 hrs by MTT assay; assay type: toxicity, cell-based; conditions: at 128 µg/mL, read-out: Activity
Escherichia coli = experiment: Antibacterial activity against Escherichia coli O157:H7 CICC 21530 incubated overnight by standard microtiter dilution method; assay type: functional
Salmonella typhimurium [5] = experiment: Antibacterial activity against Salmonella typhimurium DT104 in the presence 50% inactivated mouse serum by MH broth based assay; assay type: functional, Salmonella enterica subsp. enterica serovar Typhimurium; conditions: Salmonella enterica
Lipopolysaccharide (LPS) = experiment: Displacement of BODIPY-TR-cadaverine from Salmonella typhimurium LPS assessed as increase in fluorescence intensity by fluorescence spectrophotometric analysis; conditions: Salmonella enterica subsp. enterica serovar Typhimurium; dose 0.25-8 µg/ml
Enterococcus faecalis = experiment: Antibacterial activity against Enterococcus faecalis ATCC 29212 incubated overnight by standard microtiter dilution method; assay type: functional
Salmonella typhimurium [6] = experiment: Antibacterial activity against Salmonella typhimurium DT104 in the presence of NaCl by MH broth based assay; assay type: functional, Salmonella enterica subsp. enterica serovar Typhimurium; conditions: Salmonella enterica
[7] = Antibacterial activity against Salmonella dublin CICC 21497 incubated overnight by standard microtiter dilution method; assay type: functional, Salmonella enterica subsp. enterica serovar Dublin; conditions: Salmonella enterica
[8] = system: Salmonella enterica subsp. enterica serovar Paratyphi B; experiment: Antibacterial activity against Salmonella paratyphi B CICC 21495 incubated overnight by standard microtiter dilution method; assay type: functional
Candida albicans = experiment: Antifungal activity against Candida albicans ATCC 10231 incubated overnight by standard microtiter dilution method; assay type: functional
Salmonella typhimurium [9] = experiment: Antibacterial activity against Salmonella typhimurium CICC 21483 incubated overnight by standard microtiter dilution method; assay type: functional, Salmonella enterica subsp. enterica serovar Typhimurium; conditions: Salmonella enterica
Salmonella typhimurium [10] = experiment: Antibacterial activity against Salmonella typhimurium DT104 in the presence of NH4Cl by MH broth based assay; assay type: functional, Salmonella enterica subsp. enterica serovar Typhimurium; conditions: Salmonella enterica
Staphylococcus aureus [11] = experiment: Antibacterial activity against Staphylococcus aureus ATCC 29213 incubated overnight by standard microtiter dilution method; assay type: functional
Cell membrane = experiment: Disruption of membrane integrity in Salmonella typhimurium DT104 assessed as increase in fluorescence intensity at 0.5 to 2 times of MIC incubated for 15 mins by PI staining based flow cytometric analysis; assay type: subcellular; conditions: Salmonella enterica subsp. enterica serovar Typhimurium
RAW264.7 [12] = experiment: Inhibition of LPS-stimulated IL-8 production in mouse RAW264.7 cells at 1 to 128 ug/ml incubated for 24 hrs by ELISA analysis; assay type: functional, cell-based; conditions: dose 1-128 µg/ml
RAW264.7 [13] = experiment: Inhibition of LPS-stimulated NO production in mouse RAW264.7 cells incubated for 24 hrs by Griess reagent based analysis; assay type: functional, cell-based; conditions: dose 1-128 µg/ml
[14] = Antibacterial activity against Salmonella blockley CICC 21489 incubated overnight by standard microtiter dilution method; assay type: functional, Salmonella enterica subsp. enterica serovar Blockley; conditions: Salmonella enterica
Salmonella typhimurium [15] = experiment: Antibacterial activity against Salmonella typhimurium DT104 in the presence of CaCl2 by MH broth based assay; assay type: functional, Salmonella enterica subsp. enterica serovar Typhimurium; conditions: Salmonella enterica
Salmonella typhimurium [16] = experiment: Antibacterial activity against Salmonella typhimurium DT104 in the presence of MgCl2 by MH broth based assay; assay type: functional, Salmonella enterica subsp. enterica serovar Typhimurium; conditions: Salmonella enterica
RAW264.7 [17] = experiment: Inhibition of LPS-stimulated IL-1beta production in mouse RAW264.7 cells at 1 to 128 ug/ml incubated for 24 hrs by ELISA analysis; assay type: functional, cell-based; conditions: dose 1-128 µg/ml
RAW264.7 [18] = experiment: Inhibition of LPS-stimulated TNF-alpha production in mouse RAW264.7 cells at 1 to 128 ug/ml incubated for 24 hrs by ELISA analysis; assay type: functional, cell-based; conditions: dose 1-128 µg/ml
Salmonella typhimurium [19] = experiment: Antibacterial activity against Salmonella typhimurium DT104 in the presence of FeCl3 by MH broth based assay; assay type: functional, Salmonella enterica subsp. enterica serovar Typhimurium; conditions: Salmonella enterica
Staphylococcus aureus [20] = experiment: Antibacterial activity against methicillin-resistant Staphylococcus aureus ATCC 43300 incubated overnight by standard microtiter dilution method; assay type: functional
Erythrocyte = experiment: Hemolytic activity in human Red blood cells assessed as hemolysis incubated for 1 hrs by absorbance based microplate reader analysis; assay type: toxicity, cell-based
[21] = system: Staphylococcus epidermidis; experiment: Antibacterial activity against methicillin-resistant Staphylococcus epidermidis ATCC 12228 incubated overnight by standard microtiter dilution method; assay type: functional
[22] = Hemolytic activity in human Red blood cells assessed as hemolysis at 128 ug/ml incubated for 1 hrs by absorbance based microplate reader analysis relative to control; assay type: toxicity, cell-based, Erythrocyte; conditions: red blood cells (erythrocytes), at 128 µg/mL, read-out: Activity
Salmonella typhimurium [23] = experiment: Antibacterial activity against Salmonella typhimurium DT104 in the presence of KCl by MH broth based assay; assay type: functional, Salmonella enterica subsp. enterica serovar Typhimurium; conditions: Salmonella enterica
Salmonella enteritidis = experiment: Antibacterial activity against Salmonella enteritidis CICC 21527 incubated overnight by standard microtiter dilution method; assay type: functional, Salmonella enterica subsp. enterica serovar Enteritidis; conditions: Salmonella enterica
[24] = Antibacterial activity against Salmonella wandsworth CICC 21504 incubated overnight by standard microtiter dilution method; assay type: functional, Salmonella enterica subsp. enterica serovar Wandsworth; conditions: Salmonella enterica
[25] = Antibacterial activity against Salmonella enterica subsp. enterica serovar Choleraesuis ATCC 13312 incubated overnight by standard microtiter dilution method; assay type: functional
Salmonella typhimurium [26] = experiment: Antibacterial activity against Salmonella typhimurium DT104 in the presence 25% inactivated mouse serum by MH broth based assay; assay type: functional, Salmonella enterica subsp. enterica serovar Typhimurium; conditions: Salmonella enterica
Salmonella typhimurium [27] = experiment: Antibacterial activity against Salmonella typhimurium DT104 ATCC 700408 incubated overnight by standard microtiter dilution method; assay type: functional, Salmonella enterica subsp. enterica serovar Typhimurium; conditions: Salmonella enterica
Salmonella typhimurium [28] = experiment: Antibacterial activity against Salmonella typhimurium DT104 infected in mouse RAW264.7 cells assessed as reduction in bacterial cells at 1 times of MIC measured for 180 mins by MH agar based serial dilution method; assay type: functional, organism-based; conditions: Salmonella enterica subsp. enterica serovar Typhimurium

CC(C)[C@H](N)C(=O)N[C@@H](CCCCN)C(=O)N[C@H](C(=O)N[C@@H](CCCCN)C(=O)N[C@H](C(=O)N[C@@H](CCCCN)C(=O)N[C@@H](CS)C(=O)N[C@H](C(=O)N[C@@H](CCCCN)C(=O)N[C@@H](CO)C(=O)NCC(=O)N[C@@H](CS)C(=O)N[C@@H](CCCCN)C(=O)N[C@H](C(=O)N[C@@H](CCCCN)C(=O)N[C@H](C(=O)N[C@@H](CCCCN)C(=O)N[C@H](C(N)=O)C(C)C)C(C)C)C(C)C)[C@@H](C)O)C(C)C)C(C)C (H-VKVKVKCTKSGCKVKVKV-NH2)
MIC (Salmonella typhimurium [1]): > 128 µg/mL
MIC [2]: 2 µg/mL (≈ 1.02 µM)
MIC (Salmonella paratyphi): 2 µg/mL (≈ 1.02 µM)
MIC [3]: 32 µg/mL (≈ 16.3 µM)
viability at 24 h, 128 ug/ml [4]: 39.8%
MIC (Escherichia coli): 2 µg/mL (≈ 1.02 µM)
MIC (Salmonella typhimurium [5]): > 128 µg/mL
Activity (Lipopolysaccharide (LPS)): Dose-Dependent Effect
MIC (Enterococcus faecalis): 4 µg/mL (≈ 2.04 µM)
MIC (Salmonella typhimurium [6]): > 128 µg/mL
MIC [7]: 4 µg/mL (≈ 2.04 µM)
MIC [8]: 1 µg/mL (≈ 0.51 µM)
MIC (Candida albicans): 8 µg/mL (≈ 4.08 µM)
MIC (Salmonella typhimurium [9]): 64 µg/mL (≈ 32.6 µM)
MIC (Salmonella typhimurium [10]): 64 µg/mL
MIC (Staphylococcus aureus [11]): > 128 µg/mL
Activity (Cell membrane): Active
inhibition (RAW264.7 [12]): Active
inhibition (RAW264.7 [13]): Dose-Dependent Effect
MIC [14]: 16 µg/mL (≈ 8.16 µM)
MIC (Salmonella typhimurium [15]): > 128 µg/mL
MIC (Salmonella typhimurium [16]): > 128 µg/mL
inhibition (RAW264.7 [17]): Active
inhibition (RAW264.7 [18]): Active
MIC (Salmonella typhimurium [19]): 64 µg/mL
MIC (Staphylococcus aureus [20]): > 128 µg/mL
MHC (Erythrocyte): > 128 µg/mL
MIC [21]: 4 µg/mL (≈ 2.04 µM)
hemolysis at 1 h, 128 ug/ml [22]: < 10%
MIC (Salmonella typhimurium [23]): 128 µg/mL
MIC (Salmonella enteritidis): 32 µg/mL (≈ 16.3 µM)
MIC [24]: 4 µg/mL (≈ 2.04 µM)
MIC [25]: 0.5 µg/mL (≈ 0.255 µM)
MIC (Salmonella typhimurium [26]): > 128 µg/mL
MIC (Salmonella typhimurium [27]): 32 µg/mL (≈ 16.3 µM)

CN[C@@H]1[C@H](O[C@H]2[C@H](O[C@H]3[C@H](O)[C@@H](O)[C@H](N=C(N)N)[C@@H](O)[C@@H]3N=C(N)N)O[C@@H](C)[C@]2(O)C=O)O[C@@H](CO)[C@H](O)[C@H]1O [STREPTOMYCIN]
MIC (Salmonella typhimurium [1]): 64 µg/mL (≈ 110 µM)
MIC [2]: 64 µg/mL (≈ 110 µM)
MIC (Salmonella paratyphi): 32 µg/mL (≈ 55 µM)
MIC [3]: 32 µg/mL (≈ 55 µM)
MIC (Escherichia coli): 64 µg/mL (≈ 110 µM)
MIC (Enterococcus faecalis): 64 µg/mL (≈ 110 µM)
MIC [7]: 128 µg/mL (≈ 220 µM)
MIC [8]: 32 µg/mL (≈ 55 µM)
MIC (Candida albicans): 128 µg/mL (≈ 220 µM)
MIC (Salmonella typhimurium [9]): 32 µg/mL (≈ 55 µM)
MIC (Staphylococcus aureus [11]): 4 µg/mL (≈ 6.88 µM)
MIC [14]: > 128 µg/mL
MIC (Staphylococcus aureus [20]): 8 µg/mL (≈ 13.8 µM)
Activity (Salmonella typhimurium [28]): Active
MIC [21]: 0.25 µg/mL (≈ 0.43 µM)
MIC (Salmonella enteritidis): 16 µg/mL (≈ 27.5 µM)
MIC [24]: 2 µg/mL (≈ 3.44 µM)
MIC [25]: 64 µg/mL (≈ 110 µM)
MIC (Salmonella typhimurium [27]): 128 µg/mL (≈ 220 µM)

Reference: ChEMBL document CHEMBL5352429, “Designed symmetrical β-hairpin peptides for treating multidrug-resistant salmonella typhimurium infections” (Eur J Med Chem, 2022)
